Experimental data as given in patent US20220403001A1, “PDE5 DERIVED REGULATORY CONSTRUCTS AND METHODS OF USE IN IMMUNOTHERAPY” (Obsidian Therapeutics, Inc., priority 2018, published 2022).

Experiments:
hPDE5 mutants [1] = molecular target: hPDE5 mutants (Homo sapiens, UniProt O76074); assay: GFP MFI by FACS in HCT116 cells transduced with hPDE5 constructs; type: cell-based; conditions: HCT-116
hPDE5 mutants [2] = assay: as above; type: cell-based, human; conditions: for MFI / Stabilization ratio / Vardenafil dose response (MFI of GFP): HCT116; for Sildenafil dose response (MFI) / Tadalafil dose response (MFI): HCT 116
hPDE5 mutants [3] = assay: Western blot of AcGFP/GFP protein levels in HCT 116 cells expressing hPDE5 mutants; type: cell-based, human; conditions: 10 μM Vardenafil, 24 hours, HCT 116
Experimental: Protein expression analysis of the combination mutants was performed in parallel via western blot. […] GAPDH levels were also analyzed to ensure even protein loading.

What does the source list for “OT-001222: hPDE5 (F736A, D764N) GFP construct”?
Sildenafil Stabilization ratio (hPDE5 mutants [1]; 10 μM, 48 h): 1.10; Vardenafil Stabilization ratio (hPDE5 mutants [1]; 10 μM, 48 h): 4.26; MFI Sildenafil (hPDE5 mutants [1]; GFP, 10 μM Sildenafil 48 h): 13862; MFI Vardenafil (hPDE5 mutants [1]; GFP, 10 μM Vardenafil 48 h): 53848; Vardenafil Stabilization ratio (hPDE5 mutants [2]; 10 μM, 48 h, HCT-116): 4.26; MFI DMSO (hPDE5 mutants [2]; GFP, DMSO 48 h, HCT-116): 12633; MFI (hPDE5 mutants [2]; Sildenafil 0.04 μM, 24 h): 8688; Stabilization ratio (hPDE5 mutants [2]; Sildenafil 0.04 μM, 24 h): 0.81; MFI (hPDE5 mutants [2]; Sildenafil 0.5 μM, 4 hours): 5322; Stabilization ratio (hPDE5 mutants [2]; Sildenafil 0.5 μM, 4 hours): 1.64; MFI (hPDE5 mutants [2]; Sildenafil 0.5 μM, 8 hours): 5083; Stabilization ratio (hPDE5 mutants [2]; Sildenafil 0.5 μM, 8 hours): 1.57; MFI (hPDE5 mutants [2]; Sildenafil 0.5 μM, 12 hours): 5122; Stabilization ratio (hPDE5 mutants [2]; Sildenafil 0.5 μM, 12 hours): 1.58; MFI (hPDE5 mutants [2]; Sildenafil 0.5 μM, 16 hours): 5600; Stabilization ratio (hPDE5 mutants [2]; Sildenafil 0.5 μM, 16 hours): 1.73; MFI (hPDE5 mutants [2]; Sildenafil 0.5 μM, 20 hours): 6003; Stabilization ratio (hPDE5 mutants [2]; Sildenafil 0.5 μM, 20 hours): 1.85; MFI (hPDE5 mutants [2]; Sildenafil 0.5 μM, 24 hours): 6144; Stabilization ratio (hPDE5 mutants [2]; Sildenafil 0.5 μM, 24 hours): 1.89; MFI (hPDE5 mutants [2]; Sildenafil 0.5 μM, 48 hours): 6682; Stabilization ratio (hPDE5 mutants [2]; Sildenafil 0.5 μM, 48 hours): 2.06; MFI (hPDE5 mutants [2]; Sildenafil 0.5 μM, 72 hours): 6906; Stabilization ratio (hPDE5 mutants [2]; Sildenafil 0.5 μM, 72 hours): 2.13; MFI (hPDE5 mutants [2]; Sildenafil 3.33 μM, 24 h): 10384; Stabilization ratio (hPDE5 mutants [2]; Sildenafil 3.33 μM, 24 h): 0.97; MFI (hPDE5 mutants [2]; Sildenafil 5 μM, 4 hours): 6314; Stabilization ratio (hPDE5 mutants [2]; Sildenafil 5 μM, 4 hours): 1.88; MFI (hPDE5 mutants [2]; Sildenafil 5 μM, 8 hours): 7021; Stabilization ratio (hPDE5 mutants [2]; Sildenafil 5 μM, 8 hours): 2.09; MFI (hPDE5 mutants [2]; Sildenafil 5 μM, 12 hours): 9199; Stabilization ratio (hPDE5 mutants [2]; Sildenafil 5 μM, 12 hours): 2.73; MFI (hPDE5 mutants [2]; Sildenafil 5 μM, 16 hours): 12280; Stabilization ratio (hPDE5 mutants [2]; Sildenafil 5 μM, 16 hours): 3.65; MFI (hPDE5 mutants [2]; Sildenafil 5 μM, 20 hours): 13280; Stabilization ratio (hPDE5 mutants [2]; Sildenafil 5 μM, 20 hours): 3.95; MFI (hPDE5 mutants [2]; Sildenafil 5 μM, 24 hours): 16705; Stabilization ratio (hPDE5 mutants [2]; Sildenafil 5 μM, 24 hours): 4.97; MFI (hPDE5 mutants [2]; Sildenafil 5 μM, 48 hours): 22061; Stabilization ratio (hPDE5 mutants [2]; Sildenafil 5 μM, 48 hours): 6.56; MFI (hPDE5 mutants [2]; Sildenafil 5 μM, 72 hours): 26995; Stabilization ratio (hPDE5 mutants [2]; Sildenafil 5 μM, 72 hours): 8.02; MFI (hPDE5 mutants [2]; Sildenafil 10 μM, 24 h): 13263; Stabilization ratio (hPDE5 mutants [2]; Sildenafil 10 μM, 24 h): 1.24; Sildenafil dose response (MFI) (hPDE5 mutants [2]; Sildenafil 11.11 μM, 48 h): 5675; MFI (hPDE5 mutants [2]; Sildenafil 30 μM, 24 h): 26837; Stabilization ratio (hPDE5 mutants [2]; Sildenafil 30 μM, 24 h): 2.5; Sildenafil dose response (MFI) (hPDE5 mutants [2]; Sildenafil 33.33 μM, 48 h): 9677; Sildenafil dose response (MFI) (hPDE5 mutants [2]; Sildenafil 100.00 μM, 48 h): 37494; Destabilizing mutation co-efficient ratio (hPDE5 mutants [2]; Sildenafil dose response experiment (Table 27), vs OT-001216): 0.17; Vardenafil dose response (MFI of GFP) (hPDE5 mutants [2]; Table 33, 0.01 μM, 48 h): 4444; Vardenafil dose response (MFI of GFP) (hPDE5 mutants [2]; Table 33, 0.04 μM, 48 h): 4934; Vardenafil dose response (MFI of GFP) (hPDE5 mutants [2]; Table 33, 3.33 μM, 48 h): 10516; Vardenafil dose response (MFI of GFP) (hPDE5 mutants [2]; Table 33, 10.00 μM, 48 h): 24927; MFI (hPDE5 mutants [2]; Tadalafil 11.11 μM, 24 h): 13789; Stabilization ratio (hPDE5 mutants [2]; Tadalafil 11.11 μM, 24 h): 2.28; Tadalafil dose response (MFI) (hPDE5 mutants [2]; Tadalafil 11.11 μM, 48 h): 8299; MFI (hPDE5 mutants [2]; Tadalafil 33.33 μM, 24 h): 20464; Stabilization ratio (hPDE5 mutants [2]; Tadalafil 33.33 μM, 24 h): 3.39; Tadalafil dose response (MFI) (hPDE5 mutants [2]; Tadalafil 33.33 μM, 48 h): 15831; MFI (hPDE5 mutants [2]; Tadalafil 100 μM, 24 h): 23542; Stabilization ratio (hPDE5 mutants [2]; Tadalafil 100 μM, 24 h): 3.9; Tadalafil dose response (MFI) (hPDE5 mutants [2]; Tadalafil 100.00 μM, 48 h): 31020; Destabilizing mutation coefficient (hPDE5 mutants [2]; Tadalafil dose response experiment (Table 29), vs OT-001216): 0.17; MFI (hPDE5 mutants [2]; Vardenafil 0.04 μM, 24 h): 6174; Stabilization ratio (hPDE5 mutants [2]; Vardenafil 0.04 μM, 24 h): 0.80; MFI (hPDE5 mutants [2]; Vardenafil 3.33 μM, 24 h): 29520; Stabilization ratio (hPDE5 mutants [2]; Vardenafil 3.33 μM, 24 h): 3.84; MFI (hPDE5 mutants [2]; Vardenafil 10 μM, 24 h): 29971; Stabilization ratio (hPDE5 mutants [2]; Vardenafil 10 μM, 24 h): 3.90; MFI (hPDE5 mutants [2]; Vardenafil 30 μM, 24 h): 46109; Stabilization ratio (hPDE5 mutants [2]; Vardenafil 30 μM, 24 h): 5.99; Destabilizing mutation coefficient (hPDE5 mutants [2]; Vardenafil dose response experiment (Table 28), vs OT-001216): 0.12; Destabilizing mutation coefficient (hPDE5 mutants [2]; vs wildtype OT-001216, absence of ligand, HCT-116): 0.19; AcGFP protein levels (western blot) (hPDE5 mutants [3]): Vardenafil dependent stabilization of AcGFP protein levels
